The text below walks through data of patent publication US20210161894A1, “Compositions and Methods for Modulating Liver Endothelial Cell Fenestrations” (priority 2017, published 2021).

Entries after “also recorded” stand apart in the source; their conditions may differ.

In assay [1] the test system is isolated LSECs (liver sinusoidal endothelial cells). Description: SEM of fenestrations in isolated LSECs from young and old mice after 30 min drug treatment (second Example 7). It is filed as cell-based. As to conditions: for Diameter / Frequency / Porosity: 30 min. Here is the method: 3-4 and 18-24 month old male C57/B16 mice were obtained from the Animal Resource Centre in Perth, Western Australia. Animals were housed at the ANZAC Research Institute animal house on a 12 hour light/dark cycle and provided with ad libitum access to food and water. Mice were not fasted prior to euthanasia by a single intraperitoneal injection with 100 mg/kg ketamine and 10 mg/kg xylazine in saline. The study was approved by the Animal Welfare Committee of the Sydney Local Health District and was performed in accordance with the Australian Code of Practice for the care and use of animals for scientific research (AWC 2016/009). All information provided accords with the ARRIVE guidelines.
As described previously (Cogger et al. J e52698, 2015 https://dx.doi.org/10.3791/52698), mouse LSEC isolation was performed by perfusion of the liver with collagenase. Non-parenchymal cells were removed by a two-step Percoll gradient and Kupffer cells were removed by selective adherence to plastic. LSECs (seeded at 0.5×10^6 cells/cm2) were cultured (37° C., 5% CO2) in serum free RPMI-1640 for 3.5 hours before use.
Cells were treated with various agents for 30 minutes to determine effects on fenestrations. All agents were dissolved in serum-free RPMI media. All experiments were performed in triplicate for both young and old mice. Actin was disrupted with 0.5 μg/ml cytochalasin D and lipid rafts were disrupted with 3.6 and 1.8 μg/ml 7-keocholesterol; dosages were selected. […] The serotonergic/phospholipase C pathway was promoted with DOI (0.1 μg/ml) and endothelin receptors were inhibited by bosentan (550, 55 and 5.5 ng/ml) Death receptor 4 was promoted with TRAIL (100, 10. 1, 0.1 and 0.01 ng/ml) and NAD+ was promoted with NMN (5000, 50, 10, 1 and 0.1 μg/ml).
SEM was performed as previous described (Corbin et al J Biol Chem 274: 13729-13732, 1999.). LSECs were fixed in 2.5% glutaraldehyde in 0.1M sodium cacodylate buffer, osmicated, dehydrated in graded ethanol and hexamethyl disilazane, mounted on stubs, sputter coated with platinum and examined using a JEOL 6380 Scanning Electron Microscope (JEOL Ltd, Japan). Images at 10,000× magnification were collected by a blinded observer and used to measure fenestration diameter and LSEC porosity using Image J (NIH, MD, USA). […] Fenestrations less than 30 nm and gaps more than 300 nm were excluded from analysis. Porosity was defined as the percentage of the cell membrane covered with fenestrations. Frequency was defined at the number of fenestrations per […].
Individual specifications of analyses are described in figures legends. All data are presented as mean±SD. Experimental design and analysis were performed in accordance with the APS guidelines described in Curran-Everett and Benos DJ. Adv Physiol Educ 31: 295-298, 2007.

In a further assay the test system is LSEC fenestrations. Description: SEM of LSEC fenestrations after drug treatments (Example 2, FIGS. 1-6). It is filed as cell-based, mice. As to conditions: for fenestration porosity: 0.1 μM; for change in fenestration diameter: Bosentan 0.1 μM, Sildenafil 300 ng/ml, TRAIL 1 μg/ml. The text has this:
Young and old C57B16 mice (n=3 young mice, age 3-4 and n=3 old mice, 20-24 months) were maintained under full SPF conditions and with ad libitum feeding. The study had the approval of the Sydney South West Area Health Service Animal Welfare Committee. Mice at 20-24 months are senescent. Animals were sacrificed withCO2 and livers immediately perfusion-fixed via a 23G needle inserted into the portal vein. Liver tissue was fixed with1% glutaraldehyde/4% para-formaldehyde in PBS (0.1M sucrose).
Drug treatments and dosages (shown superimposed on their corresponding image in FIGS. 1, and 2) were performed by incubating liver cells at 37° C., 5% CO2 for 30 mins using RPMI with or without dissolved drug. All images were taken by two blinded researchers using a SEM at 10,000×, scale bars of 1 μm are shown.
Each data point represents the average±SD of 8 images (as shown in FIGS. 1 and 2), 616-3312 fenestration raw data points were collected per treatment.

In assay [2] the test system is actin cytoskeleton of LSECs. Description: dSTORM imaging of the actin cytoskeleton. Type of assay: cell-based. As to conditions: young mice. Here is the method: dSTORM imaging was performed using an in-house microscope. LSECs were prepared for dSTORM by washing twice with PBS and fixation with 4% paraformaldehyde for 30 mins. Then LSECs were washed twice with PBS, permeabilised with Triton-X for 90 secs, blocked with 5% bovine serum albumin for 1 hour, and stained with Alexa Flour phalloidin 488 (1:40) for 20 min prior to imaging. Cells were washed using PBS with 0.1% Tween and placed in OxEA buffer (30) for dSTORM visualisation and image capture. The dSTORM used 488 and 647 nm excitation from diode-pumped lasers (Coherent Inc, CA, USA). Excitation was delivered via a 1.49NA 60× oil-immersion TIRF objective (Olympus Australia, AUS). Fluorescence was captured on two separate sCMOS cameras (Imaging Development Systems GmbH, Germany). Data was collected for up to 40,000 images at around 75 fps. 5-8 whole cell images were collected by a blinded observer for each treatment dosage and processed using rapidSTORM open source software (Wolter et al. Nat Methods 9: 1040, 2012.). Each image was examined for all sieve plates and actin structures. Densitometry measurements were performed using 5-8 dSTORM images with data analysis performed using Image J software (NIH, MD, USA).

In assay [3] the test system is lipid rafts and fenestrations of LSECs. Description: 3D-SIM study of lipid rafts and fenestrations. It is filed as cell-based. The text has this: Sieve plates containing fenestrations are intercalated between thickened areas of membrane (lipid rafts).

In assay [1] (old mice, 5 ng/ml), `CCOC(=O)C1=C(COCCN)NC(C)=C(C(=O)OC)C1c1ccccc1Cl` (stereo not shown) [Amlodipine, amlodipine] showed a Diameter of 119.67 ± 22.63 nm, a Frequency of 3.56 ± 1.07 no/area and a Porosity of 4.44 ± 0.29 %. For the same compound, in assay [1] (old mice, 20 ng/ml), the “Change in Frequency, Old” value is “↑ (ns)”; the “Change in Porosity, Old” value was “↑ (ns)”; the Diameter was found to be 125.00 ± 13.36 nm; the Frequency was determined as 3.00 ± 0.66 no/area. Besides, the Porosity in assay [1] (old mice, 20 ng/ml) turned out to be 3.98 ± 0.48 %. In assay [1] (young mice, 5 ng/ml), this compound yielded a Diameter of 125.87 ± 9.30 nm, a Frequency of 3.47 ± 1.00 no/area and a Porosity of 4.73 ± 0.80%. In assay [1] (young mice, 20 ng/ml), this compound registered a Diameter of 123.66 ± 1.18 nm, a Frequency of 4.67 ± 0.65 no/area and a Porosity of 6.44 ± 1.14 %. For the same compound, the fenestration diameter in the assay on LSEC fenestrations (young mice, 20 ng/ml) is on record as 123.8±1.6 nm.
In the case of `COc1ccccc1Oc1c(NS(=O)(=O)c2ccc(C(C)(C)C)cc2)nc(-c2ncccn2)nc1OCCO` [Bosentan, bosentan], the Diameter in assay [1] (old mice, 5.5 ng/ml) was 131.03 ± 16.29 nm; in assay [1] (old mice, 55 ng/ml) it was 121.14 ± 23.80 nm; in assay [1] (old mice, 550 ng/ml), 118.64 ± 4.36 nm; in assay [1] (young mice, 5.5 ng/ml), 129.55 ± 5.46 nm; in assay [1] (young mice, 55 ng/ml) it was 132.12 ± 9.03 nm; in assay [1] (young mice, 550 ng/ml), 133.73 ± 9.03 nm. Further, the Frequency in assay [1] (old mice, 5.5 ng/ml) is listed as 3.14 ± 0.35 no/area; in assay [1] (old mice, 55 ng/ml), 2.31 ± 1.03 no/area; in assay [1] (old mice, 550 ng/ml) it was 1.46 ± 0.54 no/area; in assay [1] (young mice, 5.5 ng/ml), 3.66 ± 0.30 no/area; in assay [1] (young mice, 55 ng/ml) it was 3.20 ± 1.23 no/area; in assay [1] (young mice, 550 ng/ml), 2.30 ± 0.04 no/area. Also, the Porosity in assay [1] (old mice, 5.5 ng/ml) is 4.53 ± 0.59 %; in assay [1] (old mice, 55 ng/ml) it was 3.21 ± 0.36%; in assay [1] (old mice, 550 ng/ml), 1.86 ± 0.72%; in assay [1] (young mice, 5.5 ng/ml), 5.18 ± 0.45%; in assay [1] (young mice, 55 ng/ml), 4.48 ± 1.12%; in assay [1] (young mice, 550 ng/ml), 3.66 ± 0.41%. Further, the “effect on porosity and fenestration frequency (summary in words)” value in assay [1] (young and old LSECs) is given as “LSECs from old mice only were responsive”. For the same compound, the fenestration porosity came out at 4.2±0.4% in the assay with LSEC fenestrations (old mice) and 5.4±0.1% in the assay with LSEC fenestrations (young mice). In addition, the “change in fenestration diameter” value was “No changes” in the assay with LSEC fenestrations (old mice, 7KC 4.5 μM) and “No changes” in the assay with LSEC fenestrations (young mice). In the assay on LSEC fenestrations (young and old mice), the “sieve plates and fenestration density on SEM images” value is “maintained sieve plates and increased fenestration density”. Moreover, the “actin changes with drug treatments (dSTORM)” value in assay [2] is given as “Stress fibres; also recorded: Fused actin structure; also recorded: Individual fenestrations”.
Turning to `CCC(C)(C)C(=O)O[C@H]1C[C@@H](C)C=C2C=C[C@H](C)[C@H](CC[C@@H]3C[C@@H](O)CC(=O)O3)[C@H]21` [Simvastatin, simvastatin], in assay [1] (old mice, 0.1 μg/ml), the “Change in Diameter, Old” value is listed as “↑ (ns)”; the Diameter is on record as 147.47 ± 6.47 nm; the Frequency is 1.89 ± 0.74 no/area. In assay [1] (old mice, 1 μg/ml), the “Change in Diameter, Old” value is “↑ (ns)”; the Diameter is recorded as 145.96 ± 6.55 nm; the Frequency is on record as 1.88 ± 0.86 no/area. Moreover, in assay [1] (young mice, 0.1 μg/ml), the Diameter stood at 144.35 ± 18.95 nm, the Frequency is listed as 2.42 ± 0.55 no/area and the Porosity worked out at 4.05 ± 0.41%. Moreover, in assay [1] (young mice, 1 μg/ml), the Diameter is given as 126.55 ± 9.64 nm, the Frequency came out at 2.83 ± 0.51 no/area and the Porosity is recorded as 3.99 ± 0.55%. The fenestration diameter in the assay on LSEC fenestrations (old mice, both Simvastatin treatments) was 152.0±19.2 nm.
Triton X-100: in assay [3], the “effect on fenestrations and lipid rafts” value was “decreased fenestrations and increased rafts”.
The same measure, in the same setting: to VEGF belongs “depleted lipid rafts and increased fenestrations”.
